“Also recorded” adds a separate entry of the source. Read-outs that look alike come from different tables or passages of the source.

Data set [1] deals with monophenolase activity of the mushroom tyrosinase (Agaricus bisporus, UniProt C7FF04). Description: Inhibition of monophenolase activity of mushroom tyrosinase (L-tyrosine as substrate, absorbance at 475 nm). The settings on record: for Inhibition type: Lineweaver-Burk plots; for Inhibition mechanism: plot of V against [E]. It counts as biochemical. As to the method: The measurement of the sample's inhibitory activity on monophenolase activity was based on 0.5 mmol/L L-tyrosine as the substrate. The total reaction volume was 3.0 mL, which included 2.8 mL substrate solution, 100 µL different concentrations of the sample solutions and 100 µL mushroom tyrosinase solution. The substrate and enzyme solution were dissolved in 50 mmol/L NaH2PO4-Na2HPO4 temporary buffer solution (pH 6.8), with a substrate concentration of 0.5 mmol/L and with an enzyme solution concentration of 1.0 mg/mL. The samples were dissolved in DMSO. First, 100 µL sample solution was added, then 2.8 mL substrate solution, which was pre-incubated at 30°C, was added, and last, 100 µL enzyme solution was added and immediately mixed. The curve was drawn using real-time tracking of the optical density change over time at 475 nm. The measuring instrument was a Hitachi U3000 UV-visible spectrophotometer. The enzyme activity was obtained from the slope of the line. The sample concentration-response curve was plotted as the inhibition rate of samples to the enzyme against the concentrations of effectors.
monophenolase activity of the mushroom tyrosinase, sequence (C7FF04 1-392): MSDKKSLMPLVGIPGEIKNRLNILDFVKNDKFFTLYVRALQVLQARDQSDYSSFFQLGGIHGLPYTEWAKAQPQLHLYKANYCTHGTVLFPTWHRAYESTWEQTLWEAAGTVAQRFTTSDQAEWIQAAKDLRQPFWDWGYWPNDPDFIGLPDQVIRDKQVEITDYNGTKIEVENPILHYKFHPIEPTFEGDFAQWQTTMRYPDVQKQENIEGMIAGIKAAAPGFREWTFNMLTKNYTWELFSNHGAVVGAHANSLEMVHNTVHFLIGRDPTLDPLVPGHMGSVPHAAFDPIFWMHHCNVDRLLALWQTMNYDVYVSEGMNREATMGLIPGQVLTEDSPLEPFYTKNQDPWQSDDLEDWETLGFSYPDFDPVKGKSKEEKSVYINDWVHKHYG
(§1) The concentration of the substrate was fixed in 3.0 mL of 50 mmol/L NaH2PO4-Na2HPO4 temporary buffer solution (pH 6.8); however, the amount of enzyme was changed to determine the effects of different concentrations of sample on the reaction of mushroom tyrosinase catalysing L-tyrosine or L-DOPA as substrates. Mapping the reaction rate in terms of the amount of enzyme determined whether the inhibition was a reversible reaction.
(§2) And the inhibition type and inhibition constant were determined as follows. The concentration of the enzyme solution was fixed in 3.0 mL of 50 mmol/L NaH2PO4-Na2HPO4 temporary buffer solution (pH 6.8); however, the amount of substrate (L-tyrosine or L-DOPA) was changed to determine the effects of different concentrations of effectors on the reaction of mushroom tyrosinase catalysing the substrate. Using the Lineweaver-Burk method, the curve was plotted as the reciprocal of the reaction rate 1/V against the reciprocal of the substrate 1/[S] to determine the type of inhibition. If the lines intersected on the y-axis, then competitive inhibition was indicated. If the lines intersected on the x-axis, then noncompetitive inhibition was indicated. If the lines intersected in the […] quadrant, then this inhibition was mixed type 1 or 2. If the lines were parallel, then anticompetitive inhibition was indicated. The inhibition constant of the effectors on tyrosinase (KI) and the inhibition constants of the enzyme-substrate complex (KIS) were obtained by a secondary plot of the concentration of the effectors against the slope of the line and the y-axis intercept, respectively.

Data set [2] concerns mushroom tyrosinase. The settings on record: cited from earlier work.
In data set [3] the target is diphenolase activity of the mushroom tyrosinase (Agaricus bisporus, UniProt C7FF04). The experiment in a line: Inhibition of diphenolase activity of mushroom tyrosinase (L-DOPA as substrate, absorbance at 475 nm). Type of data set: biochemical. The settings on record: for Inhibition type: Lineweaver-Burk plots; for Inhibition mechanism: plot of V against [E]. As to the method:
The measurement of the sample's inhibitory activity on diphenolase activity was based on 0.5 mmol/L L-DOPA as the substrate. The experimental procedure and calculations were identical to those above-mentioned procedures and calculations.
as §1, §2

The subject of data set [4] is intestinal bacteria. To be noted: cited from earlier work.
Data set [5] relates to mushroom tyrosinase. The experiment in a line: Effect on the total process of dopachrome synthesis (consecutive UV-Vis spectra, oxidation of L-tyrosine by tyrosinase). Type of data set: biochemical. To be noted: 2.0 µmol/L sample, 0-12 min. As to the method:
The effect of tyrosinase (Worthington, USA) on the catalysis of L-tyrosine to dopachrome was determined using the method described by Hiroki, with slight modifications. The total reaction volume was 3 mL. […] The change in the absorption spectrum was determined using a Hitachi U3000 UV-visible spectrophotometer at 30°C isothermal conditions. The scanning wavelength ranged from 250 nm to 600 nm. The scanning frequency was 2 min, and the scanning time was 12 min. Thus, the changes in the absorption spectrum over time were obtained.

Data set [6] deals with mushroom tyrosinase. The experiment in a line: Effect on the enzyme-catalysed process (N-acetyl-L-tyrosine as substrate, HPLC). The settings on record: 175.9 µmol/L sample, 0-60 min. Type of data set: biochemical. As to the method: The effect of the enzyme-catalysed process was determined using a previously described method, with slight modifications. In total, 100 mg N-acetyl-L-tyrosine was dissolved using NaH2PO4-Na2HPO4 temporary buffer solution (pH 6.8), and the volume was set to 100 mL. In total, 0.25 mg/mL enzyme solution and a certain concentration of the sample solution were prepared. All the solutions were filtered using a syringe filter with an aperture of 0.22 µm. The components of the reaction system were as follows: 80 µL N-acetyl-L-tyrosine was mixed with 10 µL sample solution and incubated at 30°C for 5 min, and then 10 µL enzyme solution was added. During the period from 0–60 min, 20 µL mixed solution was injected into the HPLC system every 10 min to detect changes in N-acetyl-L-tyrosine. The HPLC conditions were as follows: a Shimadzu HPLC pump equipped with a Shimadzu 9082652 VP-ODS column (250 mm×4.6 mm). The detection wavelength was 275 nm. The injection volume was 10 µL, and the flow-rate was 1.0 mL/min. The mobile phases were A (water) and B (acetonitrile), which were prepared according to the following linear procedure: 0–8 min, A/B = 85:15 (v/v). All analyses were performed at room temperature.

Data set [7] can be described thus: Effect on the non-enzyme-catalysed process (redox reaction of L-DOPA and p-benzoquinone, HPLC). To be noted: HPLC at 245 nm and 280 nm. On the procedure:
The effect of the non-enzyme-catalysed process was determined by a previously described method, with slight modifications. The HPLC conditions were as follows: a Shimadzu HPLC pump equipped with a Shimadzu VP-ODS column (250 mm×4.6 mm). The detection wavelengths were 245 nm and 280 nm. The injection volume was 20 µL, and the flow-rate was 1.0 mL/min. The mobile phases were A (0.4% aqueous acetic acid) and B (acetonitrile), which were prepared according to the following linear procedure: 0–10 min, A/B = 90:10 (v/v).

The conditions of data set [8]: cited from earlier work.
On the set-up of data set [9]: method as in PMID 8951165. To be noted: rats, cited from earlier work.
For data set [10], the target named is tyrosinase. Further details: method as in PMID 22878208. The settings on record: read-out: IC50 of tyrosinase inhibitory activity; cited from earlier work.
Data set [11] deals with mushroom tyrosinase. The experiment in a line: Mushroom tyrosinase inhibition (literature values). Type of data set: biochemical. To be noted: monophenolase.
The mark [12] stands for this setting: MA isolated from ethanol extract of roots of Morus alba, read-out: Tyrosinase inhibitory activity.

diphenolase activity of the mushroom tyrosinase, sequence (C7FF04 1-392): as above

With `OC[C@H]1O[C@@H](Oc2cc(O)cc(/C=C/c3ccc(O[C@@H]4O[C@H](CO)[C@@H](O)[C@H](O)[C@H]4O)cc3O)c2)[C@H](O)[C@@H](O)[C@@H]1O` [MA, oxyresveratrol-4-O-β-D-glucopyranosyl-3′-O-β-D-glucopyranoside], the Inhibition type result in data set [1] was “mixed type 1”; in data set [2] (L-tyrosine and L-DOPA as substrates), “competitive”; in data set [3], “competitive”. In addition, the “KIS (inhibition constant of the enzyme-substrate complex)” value in [1] is recorded as 0.177 µmol/L. Besides, the Inhibition mechanism entry in [1] and in [3] was “reversible” in each case. Besides, the IC50 was 53.6 µM in data set [2] (setting [12]) and 42.1 µM in [10]. Also, the “Metabolism by intestinal bacteria” value in [4] was “rapidly deglucosylated and transformed into OR”. For the same compound, the “Effect on formation of dopachrome” value in data set [5] is “inhibited the formation of dopachrome”. Further, in data set [6], the “Change in content of N-acetyl-L-tyrosine” value is “did not change”. Also, in data set [7], the “Effect on redox reaction of L-DOPA and p-benzoquinone (non-enzymatic process)” value is given as “not influenced; also recorded: no effect”. Besides, the Permeability result in data set [8] is given as “poor permeability”. In data set [9] (oral administration of mulberry root acetone extract), the Bioavailability result was “approximately 1%”. Also, the Absorption rate in data set [9] (oral, most MA transformed to OR and transferred into circulating blood, estimated) is listed as 50%.

Regarding `Oc1cc(O)cc(/C=C/c2ccc(O)cc2O)c1` [OR, oxyresveratrol], the Inhibition type entry is “mixed type 1” in [1], “non-competitive” in data set [2] (L-tyrosine as the substrate) and “Non-competitive” in data set [3]. Besides, the “KIS (inhibition constant of the enzyme-substrate complex)” value in [1] is 0.662 µmol/L; in data set [3] (enzyme-substrate complex), 2.95 µmol/L. Besides, the Inhibition mechanism entry in [1] is “reversible”; in data set [2] (L-tyrosine as the substrate), “reversibly inhibited”; in [3], “reversible”. Also, the IC50 in data set [2] (setting [12]) is 0.49 µM; in data set [2] (depending on the assay conditions, read-out: IC50) it was 0.46 to 1.1 µM. Besides, in [5], the “Effect on formation of dopachrome” value was “inhibited the formation of dopachrome”. The “Difference in IC50 between literature and this paper” value in [11] (compared with ref 8) was 8 fold; in [11] (printed as lower than our experiment, compared with ref 6), “approximately 4 fold”. Also, the “Change in content of N-acetyl-L-tyrosine” value in [6] is listed as “did not change”. In addition, in [7], the “Effect on redox reaction of L-DOPA and p-benzoquinone (non-enzymatic process)” value is on record as “not influenced”.

These data come from publication PMC4192315, “An Efficient Preparation of Mulberroside A from the Branch Bark of Mulberry and Its Effect on the Inhibition of Tyrosinase Activity” (PLoS ONE, 2014).
